Assay results as given in PMC10746543, “Design principles for cyclin K molecular glue degraders” (Nature Chemical Biology, 2023).
Values joined by “and” are separate entries in the source; they are usually repeats but may differ in a detail not shown here. Equal values may be shown once.

Key:
CDK12–cyclin K and DDB1 = target: T1, CDK12–cyclin K and DDB1 (Homo sapiens, UniProt Q16531+Q9NYV4, K965R); experiment: TR-FRET ternary complex formation assay (compound titration); format: binding; conditions: for TR-FRET signal at compound concentration 4.68 nM / TR-FRET signal at compound concentration 21.6 nM / TR-FRET signal at compound concentration 36 nM / TR-FRET signal at compound concentration 79.2001 nM / TR-FRET signal at compound concentration 158.4 nM / TR-FRET signal at compound concentration 309.6 nM / TR-FRET signal at compound concentration 626.401 nM / TR-FRET signal at compound concentration 1252.8 nM / TR-FRET signal at compound concentration 2448 nM / TR-FRET signal at compound concentration 9936.01 nM / TR-FRET signal at compound concentration 20016 nM: raw replicate titration data
T1 construct: His6–CDK12 (a.a. 713–1,052); full-length or beta-propeller B domain deletion (ΔBPB: a.a. 396–705 deleted) constructs of His6–DDB1ΔBPB, StrepII–Avi–DDB1, or His6–Spy–DDB1; made in house; host or cells: Trichoplusia ni High Five insect cells (baculovirus)
How it was run: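 TR-FRET ratio 520/490 nm; 70 μs delay before read to suppress background.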

HEK293T cells = experiment: Drug sensitivity assay (CellTiter-Glo viability) with or without MLN4924 pretreatment; format: cell-based, human; conditions: for EC50: Homo sapiens, HEK-293T, HEK293T viability, 72 h, compound alone, read-out: Cellular assays EC50; for EC50 / Toxicity rescue: Supplementary Table 2; for Toxicity rescue: MLN4924-mediated cytotoxicity rescue, 10 µM used where n.d.
How it was run: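 Luminescent ATP read-out (CellTiter-Glo) after 3 days of drug exposure, normalised to DMSO controls. Cells were HEK293T–Cas9, pretreated with 100 nM MLN4924 or DMSO for 2 h before drug dispensing.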

[1] = test system: cyclin K–eGFP degradation reporter; experiment: Cyclin K reporter stability analysis (dual-color cyclin K–eGFP reporter); format: cell-based, human; conditions: Supplementary Table 2; HEK293T cycK-eGFP reporter, 5 h; read-out: Cellular assays DC50
How it was run: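 HEK293T–Cas9 cells carrying the cyclin K–eGFP reporter were seeded at 1 × 10^6 ml^−1 and exposed to drug or DMSO for 5 h. Flow cytometry gave geometric means of eGFP and mCherry in round, mCherry-positive cells. The eGFP/mCherry ratio was normalized to the mean of three DMSO controls.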

[2] = compound concentration 79.2001 nM
[3] = compound concentration 158.4 nM
[4] = compound concentration 309.6 nM
[5] = compound concentration 626.401 nM
[6] = compound concentration 1252.8 nM
[7] = compound concentration 9936.01 nM
[8] = compound concentration 20016 nM

T1 sequence (Q9NYV4 713-1052 K965R): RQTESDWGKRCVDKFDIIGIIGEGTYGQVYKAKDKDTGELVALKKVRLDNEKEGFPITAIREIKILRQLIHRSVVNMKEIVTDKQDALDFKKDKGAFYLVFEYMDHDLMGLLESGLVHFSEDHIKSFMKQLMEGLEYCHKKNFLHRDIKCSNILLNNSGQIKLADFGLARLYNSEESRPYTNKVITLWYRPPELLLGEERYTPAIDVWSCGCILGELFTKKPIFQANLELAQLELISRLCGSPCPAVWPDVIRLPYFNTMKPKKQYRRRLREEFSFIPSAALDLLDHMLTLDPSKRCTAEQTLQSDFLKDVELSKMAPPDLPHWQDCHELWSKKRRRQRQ
T1 sequence (O75909 1-267 partner): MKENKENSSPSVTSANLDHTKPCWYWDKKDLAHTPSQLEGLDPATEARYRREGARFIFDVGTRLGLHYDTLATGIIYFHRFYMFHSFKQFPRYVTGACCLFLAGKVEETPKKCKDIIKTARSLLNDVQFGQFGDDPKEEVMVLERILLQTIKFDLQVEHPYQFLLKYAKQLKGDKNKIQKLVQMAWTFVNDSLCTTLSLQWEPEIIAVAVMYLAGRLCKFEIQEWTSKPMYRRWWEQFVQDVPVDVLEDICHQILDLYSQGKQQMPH
T1 sequence (Q16531 whole entry): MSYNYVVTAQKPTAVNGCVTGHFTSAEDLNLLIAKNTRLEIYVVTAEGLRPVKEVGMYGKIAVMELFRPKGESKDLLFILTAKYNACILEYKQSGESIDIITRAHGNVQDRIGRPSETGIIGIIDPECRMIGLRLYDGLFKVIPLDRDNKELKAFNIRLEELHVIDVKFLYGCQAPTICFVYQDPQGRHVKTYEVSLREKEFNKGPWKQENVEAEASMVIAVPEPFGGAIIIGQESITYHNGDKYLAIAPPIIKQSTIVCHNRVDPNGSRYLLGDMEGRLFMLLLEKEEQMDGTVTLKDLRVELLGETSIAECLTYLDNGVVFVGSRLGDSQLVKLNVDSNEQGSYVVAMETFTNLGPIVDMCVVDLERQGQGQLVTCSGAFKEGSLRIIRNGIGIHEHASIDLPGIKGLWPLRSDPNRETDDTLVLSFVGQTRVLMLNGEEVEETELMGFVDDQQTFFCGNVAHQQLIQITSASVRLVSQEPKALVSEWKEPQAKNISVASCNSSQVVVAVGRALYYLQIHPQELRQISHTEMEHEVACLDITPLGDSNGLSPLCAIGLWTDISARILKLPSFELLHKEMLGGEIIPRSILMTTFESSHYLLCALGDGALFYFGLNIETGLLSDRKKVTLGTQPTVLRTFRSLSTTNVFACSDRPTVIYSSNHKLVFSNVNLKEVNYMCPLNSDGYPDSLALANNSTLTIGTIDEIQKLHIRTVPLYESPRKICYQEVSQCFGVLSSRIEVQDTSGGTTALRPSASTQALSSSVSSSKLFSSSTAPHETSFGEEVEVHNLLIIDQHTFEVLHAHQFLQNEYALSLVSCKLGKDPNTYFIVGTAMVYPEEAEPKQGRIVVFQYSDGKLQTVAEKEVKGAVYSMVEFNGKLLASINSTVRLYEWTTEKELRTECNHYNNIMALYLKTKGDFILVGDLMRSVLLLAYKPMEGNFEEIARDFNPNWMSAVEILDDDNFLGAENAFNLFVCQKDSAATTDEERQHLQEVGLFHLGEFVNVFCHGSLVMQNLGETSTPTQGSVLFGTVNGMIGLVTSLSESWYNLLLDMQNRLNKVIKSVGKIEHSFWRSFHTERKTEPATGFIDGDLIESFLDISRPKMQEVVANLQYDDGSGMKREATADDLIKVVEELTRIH

TR-FRET signal at compound concentration 4.68 nM (CDK12–cyclin K and DDB1; compound concentration 4.68 nM) | TR-FRET signal at compound concentration 21.6 nM (CDK12–cyclin K and DDB1; compound concentration 21.6 nM) | TR-FRET signal at compound concentration 36 nM (CDK12–cyclin K and DDB1; compound concentration 36 nM) | TR-FRET signal at compound concentration 79.2001 nM (CDK12–cyclin K and DDB1; [2]) | TR-FRET signal at compound concentration 158.4 nM (CDK12–cyclin K and DDB1; [3]) | TR-FRET signal at compound concentration 309.6 nM (CDK12–cyclin K and DDB1; [4]) | TR-FRET signal at compound concentration 626.401 nM (CDK12–cyclin K and DDB1; [5]) | TR-FRET signal at compound concentration 1252.8 nM (CDK12–cyclin K and DDB1; [6]) | TR-FRET signal at compound concentration 2448 nM (CDK12–cyclin K and DDB1; compound concentration 2448 nM) | TR-FRET signal at compound concentration 9936.01 nM (CDK12–cyclin K and DDB1; [7]) | TR-FRET signal at compound concentration 20016 nM (CDK12–cyclin K and DDB1; [8]) | DC50 [1] [nM] | SMILES | EC50 (HEK293T cells) [nM] | Toxicity rescue (HEK293T cells) [%] | further results
0.1362 and 0.1646 | 0.1797 and 0.2051 | 0.2299 and 0.264 | 0.275 and 0.3223 | 0.3283 and 0.3614 | 0.3492 and 0.3941 | 0.3927 and 0.4325 | 0.4009 and 0.4489 | 0.4033 and 0.4482 | 0.3857 and 0.4199 | 0.3623 and 0.3979 | > 10000 | COC[C@@H](C)N[C@H]1CC[C@H](Nc2cc(-c3cccc(NCC4(C#N)CCOCC4)n3)c(Cl)cn2)CC1 [NVP-2, reference compound] | 23 | -22 | EC50 (CDK12–cyclin K and DDB1; in vitro complex formation, 50 nM CDK12–cyclin K, 100 nM DDB1, text and figures, read-out: TR-FRET EC50): 62 ± 13 nM
0.1294 and 0.1297 | 0.1203 and 0.1454 | 0.1008 and 0.09563 | 0.09205 and 0.08033 | 0.08734 and 0.07305 | 0.08584 and 0.06932 | 0.07997 and 0.06847 | 0.0797 and 0.06911 | 0.07318 and 0.06928 | 0.07478 and 0.06588 | 0.07606 and 0.06434 | > 10000 | CN(C)C/C=C/C(=O)Nc1ccc(C(=O)N2CCC[C@@H](Nc3ncc(Cl)c(-c4c[nH]c5ccccc45)n3)C2)cc1 [THZ531, reference compound] | 271 | -22 | 

SMILES | TR-FRET signal at compound concentration 4.68 nM (CDK12–cyclin K and DDB1; compound concentration 4.68 nM) | TR-FRET signal at compound concentration 21.6 nM (CDK12–cyclin K and DDB1; compound concentration 21.6 nM) | TR-FRET signal at compound concentration 36 nM (CDK12–cyclin K and DDB1; compound concentration 36 nM) | TR-FRET signal at compound concentration 79.2001 nM (CDK12–cyclin K and DDB1; [2]) | TR-FRET signal at compound concentration 158.4 nM (CDK12–cyclin K and DDB1; [3]) | TR-FRET signal at compound concentration 309.6 nM (CDK12–cyclin K and DDB1; [4]) | TR-FRET signal at compound concentration 626.401 nM (CDK12–cyclin K and DDB1; [5]) | TR-FRET signal at compound concentration 1252.8 nM (CDK12–cyclin K and DDB1; [6]) | TR-FRET signal at compound concentration 2448 nM (CDK12–cyclin K and DDB1; compound concentration 2448 nM) | TR-FRET signal at compound concentration 9936.01 nM (CDK12–cyclin K and DDB1; [7]) | TR-FRET signal at compound concentration 20016 nM (CDK12–cyclin K and DDB1; [8]) | DC50 [1] [nM] | EC50 (HEK293T cells) [nM] | Toxicity rescue (HEK293T cells) [%] | further results
CC(C)(C)c1cnc(CSc2cnc(NC(=O)C3CCNCC3)s2)o1 [SNS032, reference compound] |  |  |  |  |  |  |  |  |  |  |  | > 10000 | 265 | -22 | TR-FRET signal (CDK12–cyclin K and DDB1; compound concentration 4.68 nM): 0.1508 and 0.1736; TR-FRET signal (CDK12–cyclin K and DDB1; compound concentration 21.6 nM): 0.2014 and 0.2318; TR-FRET signal (CDK12–cyclin K and DDB1; compound concentration 36 nM): 0.2617 and 0.2904; TR-FRET signal (CDK12–cyclin K and DDB1; [2]): 0.3013 and 0.3457; TR-FRET signal (CDK12–cyclin K and DDB1; [3]): 0.3207 and 0.3602; TR-FRET signal (CDK12–cyclin K and DDB1; [4]): 0.329 and 0.3662; TR-FRET signal (CDK12–cyclin K and DDB1; [5]): 0.3309 and 0.3799; TR-FRET signal (CDK12–cyclin K and DDB1; [6]): 0.346 and 0.4035; TR-FRET signal (CDK12–cyclin K and DDB1; compound concentration 2448 nM): 0.3618 and 0.4046; TR-FRET signal (CDK12–cyclin K and DDB1; [7]): 0.3822 and 0.42; TR-FRET signal (CDK12–cyclin K and DDB1; [8]): 0.3638 and 0.4143; DDB1–CDK12 complex formation, result in words (CDK12–cyclin K and DDB1; in vitro TR-FRET): no gain-of-function activity; % MLN4924 rescue (HEK293T cells; PCA input): 0%
